Here are results for 58 compounds from the pKa sets of Baltruschat and Czodrowski (2020).

The structures appear in SMILES notation.

As to `CN1[C@@H](CC(=O)c2ccccc2)CCC[C@H]1C[C@@H](O)c1ccccc1`, the pKa (usually the pH at which an ionisable group is half protonated) (basic group) is 8. Take `CO[C@H]1C[C@@H]1C(=O)O`: for the setting “acidic group”, the pKa turned out to be 4.47.

`OC(O)c1ccccn1` gave a pKa (acidic group) of 12.8. With `c1ccc2cnccc2c1`, the pKa (basic group) turned out to be 5.36. `C/C(=N\O)C(=O)[O-]` registered a pKa (acidic group) of 11.4.

`O=S(=O)(Nc1ccccc1)C(F)(F)F` gave a pKa (acidic group) of 4.85. The compound `CC(C)(C(=O)O)C(C(N)=O)c1ccccc1` (centres undefined) came in with a pKa (acidic group) of 4.8. The compound `C#CC(C)(C)NC(C)(C)C=C` returned a pKa (basic group) of 8.2. `Cc1ccc2c(c1)CC(=O)CC2` registered a pKa (basic group) of 12.9. Still for that read-out and setting: then `Cc1ccc(N(C)CO)cc1`, with 3.73. The same measure, in the same setting: then `N#CCCNCCC#N`, with 5.23. With `Cn1c(N)nc2nc[nH]c2c1=O`, the pKa was determined as 10.4 (acidic group) and 3.2 (basic group). `C/C(=N/O)c1ccc(O)cc1O` showed a pKa (acidic group) of 8.35. Still for that read-out and setting: then `Oc1ccc2cccc(Cl)c2c1`, with 8.69.

For `CN(CCC[NH3+])CCC[NH3+]`, the pKa (basic group) worked out at 6.45. Still for that read-out and setting: then `Cc1ccc(NC(C)(C)C)cc1`, with 7.3.

With `CNc1cc[nH+]c(S)n1`, for the setting “acidic group”, the pKa is 3.09. With `[Se-]c1ncnc2nc[nH]c12`, the pKa (basic group) stood at 7.33. Compound `N#Cc1ncnc2nc[nH]c12` returned a pKa (acidic group) of 6.88. In turn, `Cc1cc(C)n(-c2ccccn2)n1` showed a pKa (basic group) of 1.89. Still for that read-out and setting: then `O=Cc1ccc(-c2ncc(-c3ccccc3)o2)cc1`, with 0.02; and `CCCCc1ccccc1N`, with 4.26. `O=C(O)/C(Cl)=N/O` came in with a pKa (acidic group) of 1.5.

Take `O=C1NC(=O)c2cc(Cl)ccc21`: the pKa (acidic group) is 9.48.

Consider `O[n+]1c2ccccc2cc2ccccc21`, for which the pKa (acidic group) is 1.37. The same measure, in the same setting: then `CC1C(=O)c2ccccc2C1=O`, with 6.17. Regarding `C(=C\c1ccncc1)/c1ccccc1`, the pKa (basic group) worked out at 5.97. Regarding `Cc1cc(C)nc([S-])n1`, the pKa (basic group) was 8.5.

Where the note is “acidic group”, `O=c1ccc(Br)ccc1O` showed a pKa of 6.32. Still for that read-out and setting: then `CC(c1cccc(F)c1)[N+](=O)[O-]` (centres undefined), with 7.05. `Nc1ncc(Sc2ccccc2)s1` displayed a pKa (basic group) of 4.16. `CNc1c(C)cccc1C` gave a pKa (basic group) of 6.12.

In turn, `COC(=O)C1=CN2CCC1CC2` yielded a pKa (basic group) of 7.17. `CC(CN)/C(N)=N/O` (centres undefined) came in with a pKa (basic group) of 9.15. Still for that read-out and setting: then `NNC(=O)c1cc[nH+]cc1`, with 1.67; and `CCc1cccc(CN(C)C)c1O`, with 8.02. In turn, `C[N+](C)(C)CCCc1cccc(O)c1` gave a pKa (acidic group) of 9.64. The compound `Cc1cnc2c(c1)cc(C)c1cc(C)cnc12` gave a pKa (basic group) of 5.27. Still for that read-out and setting: then `CCN(CC)CCOCCN(CC)CC`, with 10.1. As for `C[n+]1ccccc1O`, the pKa (acidic group) amounted to 0.32. As to `COc1c2ccccc2nc2ccccc12`, under “basic group”, the pKa turned out to be 7.

Consider `NS(=O)(=O)c1ccc(Cl)cc1`, for which the pKa (acidic group) was found to be 9.5. In turn, `Nc1nccs1` gave a pKa (basic group) of 5.44. On to `CS(=O)c1cccc(O)c1` (centres undefined), for which the pKa (acidic group) was determined as 8.75. Where the note is “basic group”, `CN(C)/N=C(\N)CC[Si](C)(C)C` had a pKa of 10.2.

The compound `CC(C)N(C(C)C)C(C)C` showed a pKa (basic group) of 11.9. Turning to `C[n+]1ccc(C(=O)Cc2ccccc2)cc1`, the pKa (acidic group) came to 9.02. Where the note is “basic group”, `Cc1ccc([C@@H](OCCN(C)C)c2ccccc2)cc1` had a pKa of 8.5. For the setting “acidic group”, `Cc1csc(S(N)(=O)=O)n1` showed a pKa of 8.35. The same measure, in the same setting: then `O=C(O)CCCC1CCCCC1`, with 4.95. For the setting “basic group”, `Cn1ncc2c(N)ncnc21` came in with a pKa of 4.32.

On to `CCC(=O)OCCN(C)C`, for which the pKa (basic group) was determined as 8.29.

`CN1C(=O)C2(CCCCC2)NC1=S` yielded a pKa (acidic group) of 11.2. `c1ccc(-c2cnc3c(ccc4cccnc43)c2)cc1` returned a pKa (basic group) of 4.82. Compound `CC1CN=C(C(C)(C)C)S1` (centres undefined) registered a pKa (basic group) of 5.02. `C[n+]1ccc([O-])nc1[O-]` came in with a pKa (basic group) of 9.73. Same read-out and setting: then `CCCCCC/[NH+]=C/c1c(C)cnc(C)c1O`, with 3.39; and `Nc1ccc2c(c1Br)CCCC2`, with 3.05.
